One data set has as its target GyrB (1–220) (Escherichia coli, UniProt P0AES6). Briefly: Isothermal titration calorimetry. It counts as binding, E. coli. Particulars: for exothermic / thermodynamic signal in ITC: fragment screening, result in words. Background: ITC needs no label: the signal is the heat of the interaction.
The nature of data set [1]: Solubility test for ITC measurement. It counts as physicochemical. Conditions: DMSO (40–200 mM) and assay (ITC) buffer.
The next data set relates to E. coli ATCC 25922. Briefly: Minimum inhibitory concentration. It counts as cell-based. Conditions: without efflux pump inhibitor.
Another data set has as its system S. aureus ATCC 29213. The data set is described as follows: Minimum inhibitory concentration. It counts as cell-based.
A further data set is described as follows: HepG2 cytotoxicity. It counts as cell-based. Conditions: human, HepG2 (ATCC HB-8065) cells.

Where “and” joins values, the source holds several entries; their conditions need not be identical. Equal entries are not always repeated.

Turning to `CNc1cccc2ccc(=O)[nH]c12` [Compound 2d, 8-(Methylamino)quinolin-2(1H)-one], the “ITC ΔH” value at GyrB (1–220) (Table 2 fragments) is −6.14 kcal/mol and -6.14^b kcal/mol. For `CCNc1cccc2ccc(=O)[nH]c12` [Compound 2q, 8-(ethylamino) quinolin-2(1H)-one], the “exothermic / thermodynamic signal in ITC” value on GyrB (1–220) was “no exothermic effects”. Regarding `Nc1cccc2ccc(=O)[nH]c12` [Compound 2u, 8-aminoquinolin-2(1H)-one], the “exothermic / thermodynamic signal in ITC” value on GyrB (1–220) is listed as “no exothermic effects”.

`CNc1cccc2cc(C(=O)Nc3ccccc3)c(=O)[nH]c12` [Compound 13, 8-(Methylamino)-2-oxo-N-phenyl-1,2-dihydroquinoline-3-carboxamide]: in data set [1], the “Solubility for ITC measurement” value is reported as “low solubility”.

As to `CNc1cccc2cc(C(=O)Nc3cccc(C(=O)O)c3)c(=O)[nH]c12` [Compound 13a, 3-{[8-(Methylamino)-2-oxo-1,2-dihydroquinoline-3-carbonyl]amino}benzoic Acid], the “ITC ΔH” value on GyrB (1–220) (Table 3) is -54 kJ/mol.

For the molecule `CNc1cccc2cc(C(=O)NCCc3cccc(C(=O)O)c3)c(=O)[nH]c12` [Compound 13c, 3-(2-{[8-(Methylamino)-2-oxo-1,2-dihydroquinoline-3-carbonyl]amino}ethyl)benzoic Acid], the “ITC ΔH” value at GyrB (1–220) (Table 3) was -55.2 kJ/mol. In addition, in the data set on E. coli ATCC 25922, the “MIC E. coli ATCC 25922” value is listed as “no antibacterial activity”. Besides, the “MIC S. aureus ATCC 29213” value with S. aureus ATCC 29213 is “no antibacterial activity”. As for `CNc1cccc2cc(C(=O)Nc3ccc(C(=O)O)cc3)c(=O)[nH]c12` [Compound 13e, 4-{[8-(Methylamino)-2-oxo-1,2-dihydroquinoline-3-carbonyl]amino}benzoic Acid], the “ITC ΔH” value at GyrB (1–220) (Table 3) is -57.3 kJ/mol. This molecule also yielded a cytotoxicity at 48 h, 50 µM in the data set “HepG2 cytotoxicity” of 8.4%. On to `CNc1cccc2cc(C(=O)NCc3ccc(C(=O)O)cc3)c(=O)[nH]c12` [Compound 13f, 4-({[8-(Methylamino)-2-oxo-1,2-dihydroquinoline-3-carbonyl]amino}methyl)benzoic Acid], for which the “MIC E. coli ATCC 25922” value with E. coli ATCC 25922 is “no antibacterial activity”. Moreover, in the data set on S. aureus ATCC 29213, the “MIC S. aureus ATCC 29213” value is reported as “no antibacterial activity”.

For the origin of these results see paper PMC7203957 (ACS Omega, 2020).
